Reference: ChEMBL document CHEMBL4396942, “19-Hydroxyeicosatetraenoic acid analogs: Antagonism of 20-hydroxyeicosatetraenoic acid-induced vascular sensitization and hypertension” (Bioorg Med Chem Lett, 2019)
Activity calls are given as the source filed them. The calls are words filed in the database; no cut-off is given here.

How the values were obtained:
Mus musculus = assay: Reversal of androgen-driven 20-HETE-induced hypertension in Cyp4a14(-/-) mouse assessed as reduction in systolic blood pressure at 10 mg/kg, ip daily and measured for 10 days; format: functional, organism-based
Rattus norvegicus [1] = organism: Rattus norvegicus; assay: Vasodilating activity in rat gracilis muscle arteriole assessed as change in internal diameter; format: functional
Rattus norvegicus [2] = organism: Rattus norvegicus; assay: Vasodilating activity in rat gracilis muscle arteriole assessed as inhibition of 20-HETE induced change in internal diameter; format: functional
[3] = Solubility of compound in water; format: physicochemical
[4] = Vasodilating activity in rat renal preglomerular microvessels assessed as effect on 20-HETE induced sensitization toward phenylephrine at 1 uM relative to 20-HETE; format: functional

Row | SMILES | fold change (FC) [4] | other results
1 | C[C@@H](O)CCC/C=C\CCCCCCC/C=C\CCCC(=O)N[C@@H](CC(=O)O)C(=O)O |  | Activity (Mus musculus): Active; Activity (Rattus norvegicus [1]): inactive; Activity (Rattus norvegicus [2]): Dose-dependent effect
2 | C[C@@H](O)CCC/C=C\CCCCCCC/C=C\CCCC(=O)[O-].[Na+] | -0.85 | solubility [3]: 250 µg/mL
3 | CC(O)CCCC/C=C\CCCCCCC/C=C\CCCC(=O)NCC(=O)[O-].[Na+] (centres undefined) | 0.58 | 
4 | O=C([O-])CCC/C=C\CCCCCCC/C=C\CCCCO.[Na+] | -0.68 | 
5 | C[C@H](O)CCC/C=C\CCCCCCC/C=C\CCCC(=O)[O-].[Na+] | -0.68 | solubility [3]: 250 µg/mL
6 | [N-]=[N+]=N[C@H](CO)CCC/C=C\CCCCCCC/C=C\CCCC(=O)[O-].[Na+] | 0.16 | 
7 | C[C@@H](O)CCC/C=C\CCCCCCC/C=C\CCCC(=O)NCC(=O)[O-].[Na+] | -4.47 | solubility [3]: 500 µg/mL
8 | CC(O)CCC/C=C\CCCCCCCCCCCCC(=O)[O-].[Na+] (centres undefined) | -0.79 | 
9 | CC(O)CCCCCCCCCCCC/C=C\CCCC(=O)[O-].[Na+] (centres undefined) | -0.66 | 
10 | C[C@H](O)CCC/C=C\CCCCCCC/C=C\CCCC(=O)N[C@@H](CC(=O)[O-])C(=O)[O-].[Na+].[Na+] | -0.59 | 
11 | [N-]=[N+]=N[C@@H](CO)CCC/C=C\CCCCCCC/C=C\CCCC(=O)[O-].[Na+] | 0.5 | 
12 | O=C([O-])CNC(=O)CCC/C=C\CCCCCCC/C=C\CCCCO.[Na+] | -0.74 | 
13 | C[C@H](O)CCC/C=C\CCCCCCC/C=C\CCCC(=O)NCC(=O)[O-].[Na+] |  | solubility [3]: 500 µg/mL
14 | CC(O)CCC/C=C\CCCCCCC/C=C\CCCc1nnn[nH]1 (centres undefined) | -0.78 | 
